Literature values in patent US8124611B2, “Inhibitors of the mutant form of kit” (Novartis AG, priority 2003, dated 2012).

Biological target: KIT D816V mutation (Homo sapiens, UniProt P10721, D816V)
Conditions: D816V mutation commonly found in systemic mastocytosis

Sequence of KIT D816V mutation (P10721 26-976 D816V): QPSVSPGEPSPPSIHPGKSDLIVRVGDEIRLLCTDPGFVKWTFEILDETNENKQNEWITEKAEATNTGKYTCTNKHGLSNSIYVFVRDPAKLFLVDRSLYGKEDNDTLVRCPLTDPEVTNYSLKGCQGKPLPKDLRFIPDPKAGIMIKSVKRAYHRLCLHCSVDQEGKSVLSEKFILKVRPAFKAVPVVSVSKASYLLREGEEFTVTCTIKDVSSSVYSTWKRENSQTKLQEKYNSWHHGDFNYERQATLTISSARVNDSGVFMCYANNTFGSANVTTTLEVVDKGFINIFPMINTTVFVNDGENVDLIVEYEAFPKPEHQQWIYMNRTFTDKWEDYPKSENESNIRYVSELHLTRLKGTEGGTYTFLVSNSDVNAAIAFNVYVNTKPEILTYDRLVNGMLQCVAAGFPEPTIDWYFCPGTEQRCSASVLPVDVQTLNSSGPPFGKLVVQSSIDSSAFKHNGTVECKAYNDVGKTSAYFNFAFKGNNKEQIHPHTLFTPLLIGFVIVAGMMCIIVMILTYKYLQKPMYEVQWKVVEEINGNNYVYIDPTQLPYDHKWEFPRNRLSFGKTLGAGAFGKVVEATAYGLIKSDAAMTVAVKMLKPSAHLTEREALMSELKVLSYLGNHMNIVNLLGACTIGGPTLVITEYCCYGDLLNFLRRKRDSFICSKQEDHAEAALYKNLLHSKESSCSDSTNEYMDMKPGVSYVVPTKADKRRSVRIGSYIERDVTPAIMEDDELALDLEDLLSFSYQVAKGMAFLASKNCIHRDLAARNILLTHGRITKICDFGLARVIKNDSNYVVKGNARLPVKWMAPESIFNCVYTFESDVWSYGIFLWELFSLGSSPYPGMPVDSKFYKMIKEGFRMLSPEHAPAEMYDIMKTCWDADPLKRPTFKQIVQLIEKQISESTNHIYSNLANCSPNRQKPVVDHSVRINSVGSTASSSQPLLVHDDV

Cc1ccc(NC(=O)c2ccc(CN3CCN(C)CC3)cc2)cc1Nc1nccc(-c2cccnc2)n1 [Imatinib]
activity against mutant forms of KIT: inactive or significantly less active
